# Data as given in US8822467B2 (Ligand Pharmaceuticals Inc., priority 2009, dated 2014).
# Target: T1, human CRTH2 (Homo sapiens, UniProt Q9Y5Y4)
# T1 construct: expressed in transfected cells
# T1 sequence (Q9Y5Y4 1-395): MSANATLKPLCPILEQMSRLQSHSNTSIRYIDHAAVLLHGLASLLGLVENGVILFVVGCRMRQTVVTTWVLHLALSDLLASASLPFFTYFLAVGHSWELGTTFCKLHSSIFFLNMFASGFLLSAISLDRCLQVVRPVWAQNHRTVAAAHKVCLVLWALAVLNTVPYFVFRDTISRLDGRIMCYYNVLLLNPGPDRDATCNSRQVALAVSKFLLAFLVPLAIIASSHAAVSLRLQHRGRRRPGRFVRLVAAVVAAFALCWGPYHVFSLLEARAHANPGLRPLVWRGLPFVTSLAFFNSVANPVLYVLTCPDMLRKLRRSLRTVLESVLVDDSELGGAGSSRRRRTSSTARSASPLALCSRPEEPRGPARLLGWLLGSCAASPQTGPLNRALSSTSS
# Test: [35S]GTPγS binding assay (SPA) on membranes from CHO-K1 cells stably expressing human CRTH2, stimulated with 60 nM DHK-PGD2
# Format: biochemical
# Conditions: membranes of CHO-K1 cells expressing human CRTH2; 60 nM DHK-PGD2; Table 1; read-out: CRTH2 hGTPγS IC50
# In short: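 Read-out is scintillation proximity: bound [35S]GTPγS (500 pM, with 10 μM GDP) was counted 4 h after centrifuging a 2 h ambient-temperature incubation. Reactions held 4 μg human CRTH2 CHO-K1 membrane protein, 60 nM DHK-PGD2 agonist and test compounds at increasing concentrations. Buffer: 20 mM HEPES pH 7.4, 10 mM MgCl2, 300 mM NaCl, 0.2% BSA, 1% DMSO.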
row,IC50 [µM],Compound
1,0.0018,"CN(Cc1ccc(OCC(=O)O)c(-c2cc(F)cc(C#N)c2)c1)S(=O)(=O)c1ccc(F)c(F)c1 [Example 44, 2-(3-cyano-5-fluorophenyl)-4-((3,4-difluoro-N-methylphenylsulfonamido)methyl)phenoxyacetic acid]"
2,0.043,"CN(Cc1ccc(OCC(=O)O)c(-c2cccc(C#N)c2)c1)S(=O)(=O)c1cc(F)cc(F)c1 [Example 97, 2-(3-cyanophenyl)-4-((3,5-difluoro-N-methylphenylsulfonamido)methyl)phenoxyacetic acid]"
3,0.0034,"CN(Cc1ccc(OCC(=O)O)c(-c2cc(F)cc(F)c2)c1)S(=O)(=O)c1ccc(Cl)c(Cl)c1 [Example 51, 2-(3,5-difluorophenyl)-4-((3,4-dichloro-N-methylphenylsulfonamido)methyl)phenoxyacetic acid]"
4,0.019,"CN(Cc1ccc(OCC(=O)O)c(-c2ccc3nonc3c2)c1)S(=O)(=O)c1ccc(F)cc1 [Example 187, 2-(5-benzo[c][1,2,5]oxadiazolyl)-4-((4-fluoro-N-methylphenylsulfonamido)methyl)phenoxyacetic acid]"

# Same assay, conditions: potency class symbols; Table 2; read-out: CRTH2 hGTPγS IC50
row,Compound,IC50 [µM]
1,"CN(Cc1ccc(OCC(=O)O)c(-c2cccc(S(C)(=O)=O)c2)c1)S(=O)(=O)c1ccccc1F [Example 94, 2-(3-methylsulfonylphenyl)-4-((2-fluoro-N-methylphenylsulfonamido)methyl)phenoxyacetic acid]",< 0.1
2,"CN(Cc1ccc(OCC(=O)O)c(-c2ccc3ncn(C)c3c2)c1)S(=O)(=O)c1ccc(F)cc1 [Example 184, 2-(3-methyl-3H-benzo[d]imidazol-5-yl)-4-((4-fluoro-N-methylphenylsulfonamido)methyl)phenoxyacetic acid]",1 to 10
3,"COCc1cccc(-c2cc(CN(C)S(=O)(=O)c3ccc(F)cc3)ccc2OCC(=O)O)c1 [Example 114, 2-(3-methoxymethylphenyl)-4-((4-fluoro-N-methylphenylsulfonamido)methyl)phenoxyacetic acid]",0.1 to 1
4,"CN(Cc1ccc(OCC(=O)O)c(-c2cccc(S(C)(=O)=O)c2)c1)S(=O)(=O)c1ccccc1 [Example 78, 2-(3-methylsulfonylphenyl)-4-((N-methylphenylsulfonamido)methyl)phenoxyacetic acid]",< 0.1
5,"COc1cccc(-c2cc(CN(C)S(=O)(=O)c3ccc(F)cc3)ccc2OCC(=O)O)c1 [Example 133, 2-(3-methoxyphenyl)-4-((4-fluoro-N-methylphenylsulfonamido)methyl)phenoxyacetic acid]",0.1 to 1
6,"CC(C)Oc1cc(F)cc(-c2cc(CN(C)S(=O)(=O)c3ccc(F)cc3)ccc2OCC(=O)O)c1 [Example 100, 2-(3-isopropoxy-5-fluorophenyl)-4-((4-fluoro-N-methylphenylsulfonamido)methyl)phenoxyacetic acid]",< 0.1
7,"CN(Cc1ccc(OCC(=O)O)c(-c2ccccc2Cl)c1)S(=O)(=O)c1ccc(F)cc1 [Example 177, 2-(2-chlorophenyl)-4-((4-fluoro-N-methylphenylsulfonamido)methyl)phenoxyacetic acid]",1 to 10
8,"CN(Cc1ccc(OCC(=O)O)c(-c2cncnc2)c1)S(=O)(=O)c1ccccc1 [Example 172, 2-(pyrimidin-5-yl)-4-((N-methylphenylsulfonamido)methyl)phenoxyacetic acid]",1 to 10
9,"COc1ccc(-c2cc(CN(C)S(=O)(=O)c3ccc(F)cc3)ccc2OCC(=O)O)cc1 [Example 164, 2-(4-methoxyphenyl)-4-((4-fluoro-N-methylphenylsulfonamido)methyl)phenoxyacetic acid]",1 to 10
10,"CN(Cc1ccc(OCC(=O)O)c(-c2cccc(C#N)c2)c1)S(=O)(=O)c1cc(F)cc(F)c1 [Example 97, 2-(3-cyanophenyl)-4-((3,5-difluoro-N-methylphenylsulfonamido)methyl)phenoxyacetic acid]",< 0.1
11,"CN(Cc1ccc(OCC(=O)O)c(-c2cccc3ncccc23)c1)S(=O)(=O)c1ccc(F)cc1 [Example 180, 2-(quinolin-5-yl)-4-((4-fluoro-N-methylphenylsulfonamido)methyl)phenoxyacetic acid]",1 to 10
12,"CN(Cc1cc(-c2cccc(C#N)c2)c(OCC(=O)O)cc1Cl)S(=O)(=O)c1ccc(F)cc1 [Example 49, 2-(3-cyanophenyl)-4-((4-fluoro-N-methylphenylsulfonamido)methyl)-5-chlorophenoxyacetic acid]",< 0.1
13,"CN(Cc1ccc(OCC(=O)O)c(-c2cccc(Cl)c2)c1)S(=O)(=O)c1ccccc1 [Example 167, 2-(3-chlorophenyl)-4-((N-methylphenylsulfonamido)methyl)phenoxyacetic acid]",1 to 10
14,"CN(Cc1ccc(OCC(=O)O)c(-c2cc(F)cc(F)c2)c1)S(=O)(=O)c1ccc(Cl)c(Cl)c1 [Example 51, 2-(3,5-difluorophenyl)-4-((3,4-dichloro-N-methylphenylsulfonamido)methyl)phenoxyacetic acid]",< 0.1
15,"CN(Cc1ccc(OCC(=O)O)c(-c2ccc[n+]([O-])c2)c1)S(=O)(=O)c1ccc(F)cc1 [Example 176, 2-(N-oxy-pyridine-3-yl)-4-((4-fluoro-N-methylphenylsulfonamido)methyl)phenoxyacetic acid]",1 to 10
16,"CN(Cc1ccc(OCC(=O)O)c(-c2ccc3nonc3c2)c1)S(=O)(=O)c1ccc(F)cc1 [Example 187, 2-(5-benzo[c][1,2,5]oxadiazolyl)-4-((4-fluoro-N-methylphenylsulfonamido)methyl)phenoxyacetic acid]",< 0.1
17,"CCS(=O)(=O)c1cccc(-c2cc(CN(C)S(=O)(=O)c3ccc(F)cc3)ccc2OCC(=O)O)c1 [Example 83, 2-(3-ethylsulfonylphenyl)-4-((4-fluoro-N-methylphenylsulfonamido)methyl)phenoxyacetic acid]",< 0.1
18,"CN(Cc1ccc(OCC(=O)O)c(-c2ccc(S(C)(=O)=O)cc2)c1)S(=O)(=O)c1ccc(F)cc1 [Example 124, 2-(4-methylsulfonylphenyl)-4-((4-fluoro-N-methylphenylsulfonamido)methyl)phenoxyacetic acid]",0.1 to 1

# Continued, values first:
row,IC50 [µM],Compound
1,1 to 10,"C[C@@H](Oc1ccc(CN(C)S(=O)(=O)c2ccc(F)cc2)cc1-c1cccc(C(F)(F)F)c1)C(=O)O [Example 35, (R)-2-(2-(3-trifluoromethylphenyl)-4-((4-fluoro-N-methylphenylsulfonamido)methyl)phenoxy)propanoic acid]"
2,1 to 10,"CN(Cc1cc(F)c(OCC(=O)O)c(-c2cccc(C(F)(F)F)c2)c1)S(=O)(=O)c1ccc(F)cc1 [Example 161, 2-(3-trifluoromethylphenyl)-4-((4-fluoro-N-methylphenylsulfonamido)methyl)-6-fluorophenoxyacetic acid]"
3,< 0.1,"CN(Cc1ccc(OCC(=O)O)c(-c2cccc(C#N)c2)c1)S(=O)(=O)c1ccc(F)c(Cl)c1 [Example 62, 2-(3-cyanophenyl)-4-((3-chloro-4-fluoro-N-methylphenylsulfonamido)methyl)phenoxyacetic acid]"
4,0.1 to 1,"CCN(Cc1ccc(OCC(=O)O)c(-c2cccc(C(F)(F)F)c2)c1)S(=O)(=O)c1ccc(F)cc1 [Example 140, 2-(3-trifluoromethylphenyl)-4-((4-fluoro-N-ethylphenylsulfonamido)methyl)phenoxyacetic acid]"
5,0.1 to 1,"CN(Cc1ccc(OCC(=O)O)c(-c2cccc(C(F)(F)F)c2)c1)S(=O)(=O)c1cccnc1 [Example 149, 2-(3-trifluoromethylphenyl)-4-((N-methylpyridine-3-sulfonamido)methyl)phenoxyacetic acid]"
6,1 to 10,"CN(Cc1ccc(OCC(=O)O)c(-c2cccc(C(F)(F)F)c2)c1)S(=O)(=O)c1ccccn1 [Example 173, 2-(3-trifluoromethylphenyl)-4-((N-methylpyridine-2-sulfonamido)methyl)phenoxyacetic acid]"
7,1 to 10,"CC(C)N(Cc1ccc(OCC(=O)O)c(-c2cccc(C(F)(F)F)c2)c1)S(=O)(=O)c1ccc(F)c(F)c1 [Example 152, 2-(3-trifluoromethylphenyl)-4-((3,4-difluoro-N-isopropylphenylsulfonamido)methyl)phenoxyacetic acid]"
8,< 0.1,"CN(Cc1ccc(OCC(=O)O)c(-c2cc(F)cc(C#N)c2)c1)S(=O)(=O)c1ccc(F)c(F)c1 [Example 44, 2-(3-cyano-5-fluorophenyl)-4-((3,4-difluoro-N-methylphenylsulfonamido)methyl)phenoxyacetic acid]"
9,< 0.1,"CN(Cc1ccc(OCC(=O)O)c(-c2cccc(C(F)(F)F)c2)c1)S(=O)(=O)c1ccc(F)c(F)c1 [Example 91, 2-(3-trifluoromethylphenyl)-4-((3,4-difluoro-N-methylphenylsulfonamido)methyl)phenoxyacetic acid]"
10,0.1 to 1,"CN(Cc1ccc(OCC(=O)O)c(-c2cccc(C(F)(F)F)c2)c1)S(=O)(=O)c1ccccc1 [Example 131, 2-(3-trifluoromethylphenyl)-4-((N-methylphenylsulfonamido)methyl)phenoxyacetic acid]"
11,0.1 to 1,"CN(Cc1ccc(OCC(=O)O)c(-c2cccc(O)c2)c1)S(=O)(=O)c1ccc(F)cc1 [Example 132, 2-(3-hydroxyphenyl)-4-((4-fluoro-N-methylphenylsulfonamido)methyl)phenoxyacetic acid]"
12,< 0.1,"CNS(=O)(=O)c1cccc(-c2cc(CN(C)S(=O)(=O)c3ccc(F)c(Cl)c3)ccc2OCC(=O)O)c1 [Example 16, 2-(2-(3-N-methylsulfamoylphenyl)-4-((3-chloro-4-fluoro-N-methylphenylsulfonamido)methyl)phenoxy)acetic acid]"
13,1 to 10,"Cc1cccc(-c2cc(CN(C)S(=O)(=O)c3ccc(F)cc3)ccc2OCC(=O)O)c1 [Example 156, 2-(3-methylphenyl)-4-((4-fluoro-N-methylphenylsulfonamido)methyl)phenoxyacetic acid]"
14,1 to 10,"CC(C)N(Cc1ccc(OCC(=O)O)c(-c2cccc(C(F)(F)F)c2)c1)S(=O)(=O)c1ccc(F)cc1 [Example 158, 2-(3-trifluoromethylphenyl)-4-((4-fluoro-N-isopropylphenylsulfonamido)methyl)phenoxyacetic acid]"
